Legend:
wild oat [1] = assay: Test Example 4: herbicidal effect by soil treatment (Table 19, symbol I); assay type: in vivo, wild oat (Avena fatua); settings: amount of applied herbicide 320 g/ha
Procedure, shortened: (§1)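 Scoring uses the grading scale of an earlier test, three weeks post-application. Treatment consists of spraying a diluted emulsion formulation across the surface of sterilized diluvial soil in which seeds are buried near 1.5 cm deep; boxes are kept in a greenhouse between 25° C. and 30° C.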

late watergrass = assay: Test Example 1: herbicidal activity, application before weed generation under submerged conditions (Table 16, symbol A); assay type: in vivo, late watergrass (Echinochloa oryzicola); settings: amount of applied herbicide 320 g/ha
Procedure, shortened: (§2)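 Alluvial soil was flooded to 4 cm depth, weed seeds were sown mixed and 2.5-leaf rice seedlings were transplanted. On sowing day, the compound's emulsion, diluted in water to a set dose, was applied to the water surface. Plants grew at 25–30 °C and were scored 0–5 after three weeks.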

persian speedwell [2] = assay: Test Example 4: herbicidal effect by soil treatment (Table 19, symbol R); assay type: in vivo, Persian speedwell (Veronica persica); settings: amount of applied herbicide 320 g/ha
Procedure, shortened: as §1

southern crabgrass [3] = assay: Test Example 5: herbicidal effect by foliage application, plastic box (Table 20, symbol F); assay type: in vivo, southern crabgrass (Digitaria ciliaris); settings: 320 g/ha, foliage application after 14-day growth, evaluated three weeks after application
Procedure, shortened: (§3)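 Post-emergence foliar test in sterilized diluvial soil. Compound applied as water-diluted emulsion at a predetermined rate to 14-day-old plants; evaluation at three weeks.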

windgrass [4] = assay: Test Example 5: herbicidal effect by foliage application, plastic box (Table 20, symbol L); assay type: in vivo, windgrass (Apera spica-venti); settings: 320 g/ha, foliage application after 14-day growth, evaluated three weeks after application
Procedure, shortened: as §3

blackgrass [5] = assay: Test Example 5: herbicidal effect by foliage application, plastic box (Table 20, symbol J); assay type: in vivo, blackgrass (Alopecurus myosuroides); settings: 320 g/ha, foliage application after 14-day growth, evaluated three weeks after application
Procedure, shortened: as §3

southern crabgrass [6] = assay: Test Example 4: herbicidal effect by soil treatment (Table 19, symbol F); assay type: in vivo, southern crabgrass (Digitaria ciliaris); settings: amount of applied herbicide 320 g/ha
Procedure, shortened: as §1

oval-leafed pondweed = assay: Test Example 1: herbicidal activity, application before weed generation under submerged conditions (Table 16, symbol C); assay type: in vivo, oval-leafed pondweed (Monochoria vaginalis); settings: amount of applied herbicide 320 g/ha
Procedure, shortened: as §2

green foxtail [7] = assay: Test Example 4: herbicidal effect by soil treatment (Table 19, symbol G); assay type: in vivo, green foxtail (Setaria viridis); settings: amount of applied herbicide 320 g/ha
Procedure, shortened: as §1

Italian ryegrass [8] = assay: Test Example 4: herbicidal effect by soil treatment (Table 19, symbol K); assay type: in vivo, Italian ryegrass (Lolium multiflorum); settings: amount of applied herbicide 320 g/ha
Procedure, shortened: as §1

velvetleaf [9] = assay: Test Example 4: herbicidal effect by soil treatment (Table 19, symbol M); assay type: in vivo, velvetleaf (Abutilon theophrasti); settings: amount of applied herbicide 320 g/ha
Procedure, shortened: as §1

velvetleaf [10] = assay: Test Example 5: herbicidal effect by foliage application, plastic box (Table 20, symbol M); assay type: in vivo, velvetleaf (Abutilon theophrasti); settings: 320 g/ha, foliage application after 14-day growth, evaluated three weeks after application
Procedure, shortened: as §3

Chinese sprangletop = assay: Test Example 3: herbicidal effect by foliage application, Wagner pot (Table 18, symbol D); assay type: in vivo, chinese sprangletop (Leptochloa chinensis); settings: 320 g/ha
Procedure, shortened: (§4)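 Plants were sown in alluvial soil held under 0.1–0.5 cm standing water and grown 14 days in a greenhouse at 25–30 °C. An emulsifiable formulation, water-diluted to the set dose, was then sprayed onto the foliage, and effects were scored three weeks later using previously defined criteria.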

chickweed [11] = assay: Test Example 4: herbicidal effect by soil treatment (Table 19, symbol P); assay type: in vivo, common chickweed (Stellaria media); settings: amount of applied herbicide 320 g/ha
Procedure, shortened: as §1

windgrass [12] = assay: Test Example 4: herbicidal effect by soil treatment (Table 19, symbol L); assay type: in vivo, windgrass (Apera spica-venti); settings: amount of applied herbicide 320 g/ha
Procedure, shortened: as §1

Japanese bulrush = assay: Test Example 1: herbicidal activity, application before weed generation under submerged conditions (Table 16, symbol B); assay type: in vivo, Japanese bulrush (Schoenoplectus juncoides); settings: amount of applied herbicide 320 g/ha
Procedure, shortened: as §2

barnyard grass [13] = assay: Test Example 4: herbicidal effect by soil treatment (Table 19, symbol H); assay type: in vivo, barnyard grass (Echinochloa crus-galli); settings: amount of applied herbicide 320 g/ha
Procedure, shortened: as §1

Italian ryegrass [14] = assay: Test Example 5: herbicidal effect by foliage application, plastic box (Table 20, symbol K); assay type: in vivo, Italian ryegrass (Lolium multiflorum); settings: 320 g/ha, foliage application after 14-day growth, evaluated three weeks after application
Procedure, shortened: as §3

lambsquarters [15] = assay: Test Example 4: herbicidal effect by soil treatment (Table 19, symbol O); assay type: in vivo, lambsquarters (Chenopodium album); settings: amount of applied herbicide 320 g/ha
Procedure, shortened: as §1

wild oat [16] = assay: Test Example 5: herbicidal effect by foliage application, plastic box (Table 20, symbol I); assay type: in vivo, wild oat (Avena fatua); settings: 320 g/ha, foliage application after 14-day growth, evaluated three weeks after application
Procedure, shortened: as §3

green foxtail [17] = assay: Test Example 5: herbicidal effect by foliage application, plastic box (Table 20, symbol G); assay type: in vivo, green foxtail (Setaria viridis); settings: 320 g/ha, foliage application after 14-day growth, evaluated three weeks after application
Procedure, shortened: as §3

barnyard grass [18] = assay: Test Example 3: herbicidal effect by foliage application, Wagner pot (Table 18, symbol H); assay type: in vivo, barnyard grass (Echinochloa crus-galli); settings: 320 g/ha
Procedure, shortened: as §4

redroot pigweed [19] = assay: Test Example 4: herbicidal effect by soil treatment (Table 19, symbol N); assay type: in vivo, redroot pigweed (Amaranthus retroflexus); settings: amount of applied herbicide 320 g/ha
Procedure, shortened: as §1

barnyard grass [20] = assay: Test Example 5: herbicidal effect by foliage application, plastic box (Table 20, symbol H); assay type: in vivo, barnyard grass (Echinochloa crus-galli); settings: 320 g/ha, foliage application after 14-day growth, evaluated three weeks after application
Procedure, shortened: as §3

chickweed [21] = assay: Test Example 5: herbicidal effect by foliage application, plastic box (Table 20, symbol P); assay type: in vivo, common chickweed (Stellaria media); settings: 320 g/ha, foliage application after 14-day growth, evaluated three weeks after application
Procedure, shortened: as §3

rice flat sedge = assay: Test Example 3: herbicidal effect by foliage application, Wagner pot (Table 18, symbol E); assay type: in vivo, rice flat sedge (Cyperus iria); settings: 320 g/ha
Procedure, shortened: as §4

blackgrass [22] = assay: Test Example 4: herbicidal effect by soil treatment (Table 19, symbol J); assay type: in vivo, blackgrass (Alopecurus myosuroides); settings: amount of applied herbicide 320 g/ha
Procedure, shortened: as §1

persian speedwell [23] = assay: Test Example 5: herbicidal effect by foliage application, plastic box (Table 20, symbol R); assay type: in vivo, Persian speedwell (Veronica persica); settings: 320 g/ha, foliage application after 14-day growth, evaluated three weeks after application
Procedure, shortened: as §3

lambsquarters [24] = assay: Test Example 5: herbicidal effect by foliage application, plastic box (Table 20, symbol O); assay type: in vivo, lambsquarters (Chenopodium album); settings: 320 g/ha, foliage application after 14-day growth, evaluated three weeks after application
Procedure, shortened: as §3

redroot pigweed [25] = assay: Test Example 5: herbicidal effect by foliage application, plastic box (Table 20, symbol N); assay type: in vivo, redroot pigweed (Amaranthus retroflexus); settings: 320 g/ha, foliage application after 14-day growth, evaluated three weeks after application
Procedure, shortened: as §3

CCCC(=O)Oc1c(C)nn(C)c(=O)c1-c1c(-c2ccccc2OCC)sc2c(F)cccc12 [4-008]
Herbicidal effect by soil treatment, I: wild oat (wild oat [1]): 0 (Herbicidal rate of 5% or less (almost no effect))
Herbicidal effect, A: late watergrass (late watergrass): 3 (Herbicidal rate of 40% or more and less than 70%)
Herbicidal effect by soil treatment, R: persian speedwell (persian speedwell [2]): 0 (Herbicidal rate of 5% or less (almost no effect))
herbicidal effect on F: southern crabgrass (evaluation grade 0-5) (southern crabgrass [3]): 4 (Herbicidal rate of 70% or more and less than 90%)
herbicidal effect on L: windgrass (evaluation grade 0-5) (windgrass [4]): 5 (Herbicidal rate of 90% or more (almost completely withered))
herbicidal effect on J: blackgrass (evaluation grade 0-5) (blackgrass [5]): 3 (Herbicidal rate of 40% or more and less than 70%)
Herbicidal effect by soil treatment, F: southern crabgrass (southern crabgrass [6]): 2 (Herbicidal rate of 20% or more and less than 40%)
Herbicidal effect, C: oval-leafed pondweed (oval-leafed pondweed): 0 (Herbicidal rate of 5% or less (almost no effect))
Herbicidal effect by soil treatment, G: green foxtail (green foxtail [7]): 3 (Herbicidal rate of 40% or more and less than 70%)
Herbicidal effect by soil treatment, K: Italian ryegrass (Italian ryegrass [8]): 0 (Herbicidal rate of 5% or less (almost no effect))
Herbicidal effect by soil treatment, M: velvetleaf (velvetleaf [9]): 1 (Herbicidal rate of 5% or more and less than 20%)
herbicidal effect on M: velvetleaf (evaluation grade 0-5) (velvetleaf [10]): 4 (Herbicidal rate of 70% or more and less than 90%)
herbicidal effect on Chinese sprangletop (D) (Chinese sprangletop): 3 (Herbicidal rate of 40% or more and less than 70%)
Herbicidal effect by soil treatment, P: chickweed (chickweed [11]): 1 (Herbicidal rate of 5% or more and less than 20%)
Herbicidal effect by soil treatment, L: windgrass (windgrass [12]): 0 (Herbicidal rate of 5% or less (almost no effect))
Herbicidal effect, B: Japanese bulrush (Japanese bulrush): 3 (Herbicidal rate of 40% or more and less than 70%)
Herbicidal effect by soil treatment, H: barnyard grass (barnyard grass [13]): 3 (Herbicidal rate of 40% or more and less than 70%)
herbicidal effect on K: Italian ryegrass (evaluation grade 0-5) (Italian ryegrass [14]): 0 (Herbicidal rate of 5% or less (almost no effect))
Herbicidal effect by soil treatment, O: lambsquarters (lambsquarters [15]): 2 (Herbicidal rate of 20% or more and less than 40%)
herbicidal effect on I: wild oat (evaluation grade 0-5) (wild oat [16]): 0 (Herbicidal rate of 5% or less (almost no effect))
herbicidal effect on G: green foxtail (evaluation grade 0-5) (green foxtail [17]): 5 (Herbicidal rate of 90% or more (almost completely withered))
herbicidal effect on barnyard grass (H) (barnyard grass [18]): 5 (Herbicidal rate of 90% or more (almost completely withered))
Herbicidal effect by soil treatment, N: redroot pigweed (redroot pigweed [19]): 2 (Herbicidal rate of 20% or more and less than 40%)
herbicidal effect on H: barnyard grass (evaluation grade 0-5) (barnyard grass [20]): 4 (Herbicidal rate of 70% or more and less than 90%)
herbicidal effect on P: chickweed (evaluation grade 0-5) (chickweed [21]): 5 (Herbicidal rate of 90% or more (almost completely withered))
herbicidal effect on rice flat sedge (E) (rice flat sedge): 5 (Herbicidal rate of 90% or more (almost completely withered))
Herbicidal effect by soil treatment, J: blackgrass (blackgrass [22]): 0 (Herbicidal rate of 5% or less (almost no effect))
herbicidal effect on R: persian speedwell (evaluation grade 0-5) (persian speedwell [23]): 4 (Herbicidal rate of 70% or more and less than 90%)
herbicidal effect on O: lambsquarters (evaluation grade 0-5) (lambsquarters [24]): 3 (Herbicidal rate of 40% or more and less than 70%)
herbicidal effect on N: redroot pigweed (evaluation grade 0-5) (redroot pigweed [25]): 5 (Herbicidal rate of 90% or more (almost completely withered))
